Laboratory results published in patent EP4741392A1, “1H-PYRAZOLO[4,3-C]PYRIDINE COMPOUND, AND COMPOSITION THEREOF AND USE THEREOF” (Shenzhen TargetRx Co., Ltd., priority 2023, dated 2025).
Like-named read-outs stand apart in the source and are kept apart here.

Tests used:
[1] = target: T1, BTK C481S (Homo sapiens, UniProt Q06187, C481S); assay: Kinase activity inhibition assay (HTRF TK Kit); type: biochemical
T1 construct: purchased Carna 08-547
Source text: (§1) In this assay, the HTRF TK Kit (Catalog No. 62TK0PEC) provided by Cisbio was used to detect the inhibitory activity of compounds on BTK kinase, BTK T474I kinase and BTK C481 S kinase and the selectivity of compounds relative to EGFR, ITK and TEC kinases.
(§2) Reagents and consumables: BTK kinase (Invitrogen, Catalog No. PV3587), BTK C481S (Carna, Product No. 08-547), BTK T474I(SignalChem Product No. B10-12HH), ITK (Cama, Product No. 08-181), EGFR (Cama, Product No. 08-115), TEC (Carna, Product No. 08-182), HTRF-TK kit (Cisbio, Product No. 62TK0PEC), MgCl2 (Sigma, Product No. M1028), MnCl2 (Sigma, Product No. M1787), DTT (Sigma, Product No. D0632), ATP (Sigma, Product No. A7699-1g), DMSO (Sigma, Product No. D2650), 384-well plate (PE, Product No. 6008280).
(§3) The entire operation steps were carried out on ice, and the total reaction volume was 10µL. A compound (4µL), substrate and ATP (4µL), and kinase (2µL) were added in sequence to a 384-well plate, and the plate was shaken for 30 seconds. The mixture was reacted at room temperature for an appropriate time, and then the detection reagent was added. The resulting mixture was reacted at room temperature for 1 hour, and then the plate was assayed with a microplate reader. The specific steps were as follows: • a) a 1 × kinase buffer solution required for the kinase assay was calculated according to the amount of the test compound, and prepared as needed; • b) 2.5 × working concentration of a compound was prepared, 100-fold gradient concentration solutions of a compound were diluted by 40 × to the desired concentration, respectively, mixed well, and added to each well at 4 µL per well; • c) 5 × working concentration of the substrate and ATP were prepared, mixed in a ratio of 1:1 before being added to the 384-well plate, and added to each well at 4 µL per well; • d) 5 × working concentration of a kinase was prepared, 2 µL of which was added to each well; • e) the plate was shaken on a microplate shaker for 30 seconds, sealed with a sealing membrane, and the mixture was reacted at room temperature for an appropriate time; • f) 4 × working concentration of streptavidin XL-665 and TK antibody-cryptate compound were prepared, mixed in a ratio of 1:1 before being added to the 384-well plate, and added to each well at 10 µL per well; • g) the mixture was reacted at room temperature for 1 hour, and then the plate was read; • h) the wells with only substrate, ATP and 1% DMSO added but no kinase were blank control wells, and the wells with only substrate, ATP, 1% DMSO and kinase were positive control wells.
(§4) Readings: The values of 620 nm (cryptate) and 665 nm (XL665) were read with a BioTek Synerg Neo2 microplate reader, the ratio of 665/620 for each well was calculated, and the data were exported.
(§5) Data analysis: IC50 was calculated using GraphPad Prism 7.0 software.
(§6) The IC50 (half-maximal inhibitory concentration) of the compound was obtained using the following nonlinear fitting formula: Y = Bottom + (Top−Bottom)/(1+10^(∧)((LogIC50−X)*HillSlope)) [formula] • X: Log value of the compound concentration • Y: Inhibition rate (% inhibition) • Top: Maximum response • Bottom: Baseline response • HillSlope: Slope of the curve
(§7) The formula for calculating kinase inhibition rate (inhibition rate %) was: [formula]

[2] = target: T2, BTK T474I (Homo sapiens, UniProt Q06187, T474I); assay: Kinase activity inhibition assay (HTRF TK Kit); type: biochemical
T2 construct: purchased SignalChem B10-12HH
Source text: as §1, §2, §3, §4, §5, §6, §7

[3] = target: T3, BTK kinase (Homo sapiens, UniProt Q06187); assay: Kinase activity inhibition assay (HTRF TK Kit); type: biochemical
T3 construct: purchased Invitrogen PV3587
Source text: as §1, §2, §3, §4, §5, §6, §7

[4] = test system: NIH/3T3 BTK C481S cells; assay: Phosphor-BTK(Y223) assay, adherent cells; type: cell-based; settings: read-out: NIH/3T3 BTK-C481S pBTK
Description: (§8) The purpose of this assay was to simply, quickly and directly detect the level of endogenous BTK phosphorylation in cells.
(§9) The steps for handling adherent cells were as follows: • 1) NIH/3T3 BTK WT cells (7.5 k/well) and NIH/3T3 BTK C481S cells (10 k/well) were plated in a 96-well plate, respectively, and cultured at 37 °C and 5% CO2 overnight. • 2) A 3-fold final concentration gradient dilution of a compound was prepared, and 50 µL of it was taken and added to 100 µL of cell culture. 0.5% DMSO was used as a positive control for cell growth. • 3) The plate was incubated at 37 °C and 5% CO2 for 0.5 h. • 4) Na3VO4 at a final concentration of 1mM was added, and the plate was incubated at 37 °C and 5% CO2 for 2 hours. • 5) During the incubation, the following reagents were prepared: • 1x added lysis buffer: 3 vol ddH2O + 1 vol 4x lysis buffer + 100x blocking reagent. • p-BTK (Y223) cryptate-antibody and p-BTK (Y223) d2-antibody working solutions: 1 volume of each cryopreserved antibody (stored at - 20 °C) was added to 19 times the volume of assay buffer (stored at 4 °C). • 6) After the incubation was completed, the medium was removed and 50 µL of 1x added lysis buffer was added. The plate was centrifuged at 500 rpm at room temperature for 30 min. • 7) The lysate was mixed well and 16 µL of it was transferred to a 384-well plate. 1 × added lysis buffer was used as a blank control. • 8) 4 µL of pre-mixed working solutions of the two antibodies (cryptate Ab:d2 Ab = 1:1) was added, and the plate was sealed. • 9) The plate was incubated at room temperature overnight. 10) The plate was read at 665nm and 620nm using Biotek cytation3.0 microplate reader, and the ratio of 665/620nm of each well was calculated.
as §6, with “(half-maximal phosphorylation” for “(half-maximal”, “concentration) of the phosphorylated BTK Y223” for “concentration)”
(§10) The formula for calculating cell phosphorylation inhibition rate (inhibition rate %) was: Inhibition rate% = 1−(eachconcentrationwell-blankwell)/(positivecontrolwell−blankwell) [formula]

[5] = test system: NIH/3T3 BTK WT cells; assay: Phosphor-BTK(Y223) assay, adherent cells; type: cell-based; settings: read-out: NIH/3T3 BTK-WT pBTK
Description: as §8, §9
as §6, with “(half-maximal phosphorylation” for “(half-maximal”, “concentration) of the phosphorylated BTK Y223” for “concentration)”
as §10

[6] = Mus musculus, NIH3T3, phosphorylated BTK Y223, NIH/3T3 BTK C481S cells
[7] = Mus musculus, NIH3T3, phosphorylated BTK Y223, NIH/3T3 BTK WT cells
[8] = phosphorylated BTK Y223, NIH/3T3 BTK C481S cells
[9] = phosphorylated BTK Y223, NIH/3T3 BTK WT cells

T2 sequence (Q06187 whole entry T474I): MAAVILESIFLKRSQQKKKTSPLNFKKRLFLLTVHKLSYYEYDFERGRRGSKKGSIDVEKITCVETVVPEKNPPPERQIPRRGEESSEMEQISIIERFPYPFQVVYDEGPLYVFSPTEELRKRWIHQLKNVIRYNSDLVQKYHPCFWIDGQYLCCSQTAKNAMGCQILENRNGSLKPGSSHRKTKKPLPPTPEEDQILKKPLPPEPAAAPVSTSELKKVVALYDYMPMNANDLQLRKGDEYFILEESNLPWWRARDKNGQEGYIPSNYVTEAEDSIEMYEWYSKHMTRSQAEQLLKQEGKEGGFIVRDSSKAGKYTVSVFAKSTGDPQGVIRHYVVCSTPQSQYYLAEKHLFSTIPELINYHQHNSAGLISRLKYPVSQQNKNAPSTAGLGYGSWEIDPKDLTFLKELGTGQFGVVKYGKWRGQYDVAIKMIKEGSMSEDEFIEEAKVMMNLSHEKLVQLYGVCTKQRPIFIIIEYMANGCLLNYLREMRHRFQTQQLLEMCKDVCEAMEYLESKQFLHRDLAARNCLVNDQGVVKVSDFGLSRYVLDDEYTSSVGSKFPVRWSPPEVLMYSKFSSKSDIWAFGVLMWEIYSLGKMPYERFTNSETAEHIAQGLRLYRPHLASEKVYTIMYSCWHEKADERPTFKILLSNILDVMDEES
T3 sequence (Q06187 whole entry): as the sequence (Q06187 whole entry T474I) above, with I474T counted along it
T1 sequence (Q06187 whole entry C481S): as the sequence (Q06187 whole entry T474I) above, with I474T, C481S counted along it

IC50 [1]	IC50 [2]	IC50 [3]	Compound	IC50 [4, 6]	IC50 [5, 7]	IC50 [4, 8]	IC50 [5, 9]
1 to 5 nM	50 to 500 nM	1 to 5 nM	COc1ccc(F)cc1C(=O)NCc1ccc(-c2nc(C(C)C(F)(F)F)cc3[nH]nc(N)c23)cc1 (single isomer, unassigned) [Example 2, N-(4-(3-amino-6-(1,1,1-trifluoropropan-2-yl)-1H-pyrazolo[4,3-c]pyridin-4-yl)benzyl)-5-fluoro-2-methoxybenzamide]	10 to 50 nM	5 to 10 nM	–	–
1 to 5 nM	50 to 500 nM	1 to 5 nM	COc1ccc(F)cc1C(=O)NCc1ccc(-c2nc(C(C)C(F)(F)F)cc3[nH]nc(N)c23)cc1 (single isomer, unassigned) [Example 3, N-(4-(3-amino-6-(1,1,1-trifluoropropan-2-yl)-1H-pyrazolo[4,3-c]pyridin-4-yl)benzyl)-5-fluoro-2-methoxybenzamide]	–	–	5 to 10 nM	≤ 5 nM
1 to 5 nM	5 to 50 nM	1 to 5 nM	COc1ccc(F)cc1C(=O)NCc1ccc(-c2nc(C(C)C(F)(F)F)c(-c3ccn(C)n3)c3[nH]nc(N)c23)cc1 (single isomer, unassigned) [Example 6-1, N-(4-(3-amino-7-(1-methyl-1H-pyrazol-3-yl)-6-(1,1,1-trifluoropropan-2-yl)-1H-pyrazolo[4,3-c]pyridin-4-yl)benzyl)-5-fluoro-2-methoxybenzamide]	10 to 50 nM	≤ 5 nM	–	–
1 to 5 nM	5 to 50 nM	1 to 5 nM	COc1ccc(F)cc1C(=O)NCc1ccc(-c2nc(C(C)C(F)(F)F)c(-c3ccn(C)n3)c3[nH]nc(N)c23)cc1 (single isomer, unassigned) [Example 6-2, N-(4-(3-amino-7-(1-methyl-1H-pyrazol-3-yl)-6-(1,1,1-trifluoropropan-2-yl)-1H-pyrazolo[4,3-c]pyridin-4-yl)benzyl)-5-fluoro-2-methoxybenzamide]	–	–	10 to 50 nM	≤ 5 nM
1 to 5 nM	50 to 500 nM	1 to 5 nM	COc1ccc(F)cc1C(=O)NCc1ccc(-c2nc(C(C)C(F)(F)F)c(-c3ncccn3)c3[nH]nc(N)c23)cc1 (single isomer, unassigned) [Example 7-1, N-(4-(3-amino-7-(pyrimidin-2-yl)-6-(1,1,1-trifluoropropan-2-yl)-1H-pyrazolo[4,3-c]pyridin-4-yl)benzyl)-5-fluoro-2-methoxybenzamide]	5 to 10 nM	≤ 5 nM	–	–
1 to 5 nM	50 to 500 nM	1 to 5 nM	COc1ccc(F)cc1C(=O)NCc1ccc(-c2nc(C(C)C(F)(F)F)c(-c3ncccn3)c3[nH]nc(N)c23)cc1 (single isomer, unassigned) [Example 7-2, N-(4-(3-amino-7-(pyrimidin-2-yl)-6-(1,1,1-trifluoropropan-2-yl)-1H-pyrazolo[4,3-c]pyridin-4-yl)benzyl)-5-fluoro-2-methoxybenzamide]	–	–	5 to 10 nM	≤ 5 nM
5 to 50 nM	> 500 nM	5 to 50 nM	COc1ccc(F)cc1C(=O)NCc1ccc(-c2nc(C(C)C(F)(F)F)cc3[nH]nc(N)c23)cc1 (stereo not drawn) [Example 1, N-(4-(3-amino-6-(1,1,1-trifluoropropan-2-yl)-1H-pyrazolo[4,3-c]pyridin-4-yl)benzyl)-5-fluoro-2-methoxybenzamide]	10 to 50 nM	10 to 50 nM	–	–
1 to 5 nM	5 to 50 nM	1 to 5 nM	COc1ccc(F)cc1C(=O)NCc1ccc(-c2nc(C(C)C(F)(F)F)c(-c3ccn(C)n3)c3[nH]nc(N)c23)cc1 (stereo not drawn) [Example 6, N-(4-(3-amino-7-(1-methyl-1H-pyrazol-3-yl)-6-(1,1,1-trifluoropropan-2-yl)-1H-pyrazolo[4,3-c]pyridin-4-yl)benzyl)-5-fluoro-2-methoxybenzamide]	5 to 10 nM	≤ 5 nM	–	–
1 to 5 nM	50 to 500 nM	1 to 5 nM	COc1ccc(F)cc1C(=O)NCc1ccc(-c2nc(C(C)C(F)(F)F)c(-c3ncccn3)c3[nH]nc(N)c23)cc1 (stereo not drawn) [Example 7, N-(4-(3-amino-7-(pyrimidin-2-yl)-6-(1,1,1-trifluoropropan-2-yl)-1H-pyrazolo[4,3-c]pyridin-4-yl)benzyl)-5-fluoro-2-methoxybenzamide]	5 to 10 nM	≤ 5 nM	–	–
5 to 50 nM	50 to 500 nM	1 to 5 nM	COc1ccc(F)cc1C(=O)NCc1ccc(-c2nc(C(C)C(F)(F)F)c(-c3cc(C)[nH]n3)c3[nH]nc(N)c23)cc1 (stereo not drawn) [Example 9, N-(4-(3-amino-7-(5-methyl-1H-pyrazol-3-yl)-6-(1,1,1-trifluoropropan-2-yl)-1H-pyrazolo[4,3-c]pyridin-4-yl)benzyl)-5-fluoro-2-methoxybenzamide]	10 to 50 nM	5 to 10 nM	–	–
≤ 1 nM	50 to 500 nM	≤ 1 nM	COc1ccc(F)cc1C(=O)NCc1ccc(-c2ncc(-c3ccccn3)c3[nH]nc(N)c23)cc1 [Example 15, N-(4-(3-amino-7-(pyridin-2-yl)-1H-pyrazolo[4,3-c]pyridin-4-yl)benzyl)-5-fluoro-2-methoxybenzamide]	5 to 10 nM	≤ 5 nM	–	–
1 to 5 nM	50 to 500 nM	1 to 5 nM	COc1ccc(F)cc1C(=O)NCc1ccc(-c2ncc(-c3ncccn3)c3[nH]nc(N)c23)cc1 [Example 17, N-(4-(3-amino-7-(pyrimidin-2-yl)-1H-pyrazolo[4,3-c]pyridin-4-yl)benzyl)-5-fluoro-2-methoxybenzamide]	5 to 10 nM	≤ 5 nM	–	–
